# Data from US7109193B2, “Tricyclic diazepines tocolytic oxytocin receptor antagonists” (Wyeth, priority 2001, dated 2006).
# Molecular target: T1, human oxytocin receptor (Homo sapiens, UniProt P30559)
# T1 construct: host or cells: CHO cells (pcDNA3.1 vector)
# T1 sequence (P30559 1-389): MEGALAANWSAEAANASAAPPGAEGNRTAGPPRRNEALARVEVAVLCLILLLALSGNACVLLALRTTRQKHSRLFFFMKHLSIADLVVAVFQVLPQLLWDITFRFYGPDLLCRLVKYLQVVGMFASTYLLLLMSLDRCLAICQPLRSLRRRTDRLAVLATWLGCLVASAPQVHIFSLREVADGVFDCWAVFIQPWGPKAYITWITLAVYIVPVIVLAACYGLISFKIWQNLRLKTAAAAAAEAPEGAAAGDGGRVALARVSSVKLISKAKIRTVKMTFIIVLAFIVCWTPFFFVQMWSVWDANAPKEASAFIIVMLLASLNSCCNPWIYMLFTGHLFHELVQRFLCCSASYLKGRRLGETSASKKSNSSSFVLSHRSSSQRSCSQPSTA
# Assay: Oxytocin binding in Chinese Hamster Ovary cell membranes expressing human oxytocin receptors
# Settings: 100 nM, CHO cell membranes, [3H]oxytocin, values without parentheses; for inhibition at 0.1 µM: read-out: OT % inhibition @ 100% nM
smiles,measurement,value
"COc1ccccc1-c1ccc(C(=O)N2Cc3ccc(C(=O)NCCCn4ccnc4)n3Cc3ccccc32)cc1OC [Example 132, 10-[(2,2′-Dimethoxy[1,1′-biphenyl]-4-yl)carbonyl]-N-[3-(1H-imidazol-1-yl)propyl]-10,11-dihydro-5H-pyrrolo[2,1-c][1,4]benzodiazepine-3-carboxamide]",inhibition at 0.1 µM,31%
"COc1cccc(-c2ccc(C(=O)N3Cc4ccc(C(=O)NCCC5CCCN5C)n4Cc4ccccc43)cc2C)c1 (stereo not shown) [Example 164, 10-[(3′-Methoxy-2-methyl[1′1′-biphenyl]-4-yl)carbonyl]-N-[2-(1-methyl-2-pyrrolidinyl)ethyl]-10,11-dihydro-5H-pyrrolo[2,1-c][1,4]benzodiazepine-3-carboxamide]",OT % inhibition @ 100% nM,54%
"COc1cc(C(=O)N2Cc3ccc(C(=O)NCCCn4ccnc4)n3Cc3ccccc32)ccc1-c1cccc2ccccc12 [Example 131, N-[3-(1H-Imidazol-1-yl)propyl]-10-[3-methoxy-4-(1-naphthyl)benzoyl]-10,11-dihydro-5H-pyrrolo[2,1-c][1,4]benzodiazepine-3-carboxamide]",inhibition at 0.1 µM,26%
"COc1cccc(-c2ccc(C(=O)N3Cc4ccc(C(=O)N5CCC(N6CCCCC6)CC5)n4Cc4ccccc43)cc2OC)c1 [Example 120, {10-[(2,3′-Dimethoxy-[1,1′-biphenyl]-4-yl)carbonyl]-10,11-dihydro-5H-pyrrolo[2,1-c][1,4]benzodiazepin-3-yl}[4-(1-piperidinyl)-1-piperidinyl]methanone]",inhibition at 0.1 µM,69%
"COc1cc(C(=O)N2Cc3ccc(C(=O)N(C)CCCN(C)C)n3Cc3ccccc32)ccc1-n1c(C)ccc1C [Example 310, N-[3-(Dimethylamino)propyl]-10-[4-(2,5-dimethyl-i H-pyrrol-1-yl)-3-methoxybenzoyl]-N-methyl-10,11-dihydro-5H-pyrrolo[2,1-c][1,4]benzodiazepine-3-carboxamide]",OT % inhibition @ 100% nM,58%
"COc1cc(-c2ccccc2C)c(Cl)cc1C(=O)N1Cc2ccc(C(=O)NCCN3CCCCC3)n2Cc2ccccc21 [Example 155, 10-[(6-Chloro-3-methoxy-2′-methyl[1,1′-biphenyl]-4-yl)carbonyl]-N-[2-(1-piperidinyl)ethyl]-10,11-dihydro-5H-pyrrolo[2,1-c][1,4]benzodiazepine-3-carboxamide]",inhibition at 0.1 µM,56%
"COc1ccccc1-c1ccc(C(=O)N2Cc3ccc(C(=O)NCCCn4ccnc4)n3Cc3ccccc32)cc1 [Example 126, N-[3-(1H-Imidazol-1-yl)propyl]-10-[(2′-methoxy[1,1′-biphenyl]-4-yl)carbonyl]-10,11-dihydro-5H-pyrrolo[2,1-c][1,4]benzodiazepine-3-carboxamide]",inhibition at 0.1 µM,43%
"COc1cc(C(=O)N2Cc3ccc(C(=O)N4CCC(N5CCCC5)CC4)n3Cc3ccccc32)ccc1-c1cccc2ccccc12 [Example 144, {10-[3-Methoxy-4-(1-naphthyl)benzoyl]-10,11-dihydro-5H-pyrrolo[2,1-c][1,4]benzodiazepin-3-yl}[4-(1-pyrrolidinyl)-1-piperidinyl]methanone]",inhibition at 0.1 µM,53%
"Cc1ccccc1-c1ccc(C(=O)N2Cc3ccc(C(=O)NCCCn4ccnc4)n3Cc3ccccc32)cc1C [Example 124, 10-[(2,2′-Dimethyl[1,1′-biphenyl]-4-yl)carbonyl]-N-[3-(1H-imidazol-1-yl)propyl]-10,11-dihydro-5H-pyrrolo[2,1-c][1,4]benzodiazepine-3-carboxamide]",inhibition at 0.1 µM,60%
"Cc1cc(C(=O)N2Cc3ccc(C(=O)N4CCC(N5CCCC5)CC4)n3Cc3ccccc32)ccc1-c1ccccc1C(F)(F)F [Example 148, (10-{[2-Methyl-2′-(trifluoromethyl)[1,1′-biphenyl]-4-yl]carbonyl}-10,11-dihydro-5H-pyrrolo[2,1-c][1,4]benzodiazepin-3-yl)[4-(1-pyrrolidinyl)-1-piperidinyl]methanone]",inhibition at 0.1 µM,78%
"Cc1ccccc1-c1ccc(C(=O)N2Cc3ccc(C(=O)N4CCC(N5CCCCC5)CC4)n3Cc3ccccc32)cc1 [Example 115, {10-[(2′-Methyl[1,1′-biphenyl]-4-yl)carbonyl]-10,11-dihydro-5H-pyrrolo[2,1-c][1,4]benzodiazepin-3-yl}[4-(1-piperidinyl)-1-piperidinyl]methanone]",inhibition at 0.1 µM,25%
"Cc1ccccc1-c1ccc(C(=O)N2Cc3ccc(C(=O)NCCCn4ccnc4)n3Cc3ccccc32)cc1 [Example 127, N-[3-(1H-Imidazol-1-yl)propyl]-10-[(2′-methyl[1,1′-biphenyl]-4-yl)carbonyl]-10,11-dihydro-5H-pyrrolo[2,1-c][1,4]benzodiazepine-3-carboxamide]",inhibition at 0.1 µM,29%
"COc1cc(C(=O)N2Cc3ccc(C(=O)N4CC[C@@H](N(C)C)C4)n3Cc3ccccc32)ccc1-c1cccc2ccccc12 [Example 276, [(3R)-3-(Dimethylamino)pyrrolidinyl]{10-[3-methoxy-4-(1-naphthyl)benzoyl]-10,11-dihydro-5H-pyrrolo[2,1-c][1,4]benzodiazepin-3-yl}methanone]",OT % inhibition @ 100% nM,74%
"COc1cc(-c2ccccc2C)c(Cl)cc1C(=O)N1Cc2ccc(C(=O)NCCCn3ccnc3)n2Cc2ccccc21 [Example 129, 10-[(6-Chloro-3-methoxy-2′-methyl[1,1′-biphenyl]-4-yl)carbonyl]-N-[3-(1H-imidazol-1-yl)propyl]-10,11-dihydro-5H-pyrrolo[2,1-c][1,4]benzodiazepine-3-carboxamide]",inhibition at 0.1 µM,52%
"COc1cccc(-c2ccc(C(=O)N3Cc4ccc(C(=O)NCCCn5ccnc5)n4Cc4ccccc43)cc2OC)c1 [Example 133, 10-[(2,3′-Dimethoxy[1,1′-biphenyl]4-yl)carbonyl]-N-[3-(1H-imidazol-1-yl)propyl]-10,11-dihydro-5H-pyrrolo[2,1-c][1,4]benzodiazepine-3-carboxamide]",inhibition at 0.1 µM,46%
"Cc1ccccc1-c1ccc(C(=O)N2Cc3ccc(C(=O)N4CCC(N5CCCC5)CC4)n3Cc3ccccc32)cc1C [Example 138, {10-[(2,2′-Dimethyl[1,1′-biphenyl]-4-yl)carbonyl]-10,11-dihydro-5H-pyrrolo[2,1-c][1,4]benzodiazepin-3-yl}[4-(1-pyrrolidinyl)-1-piperidinyl]methanone]",inhibition at 0.1 µM,95%
"COc1ccccc1-c1ccc(C(=O)N2Cc3ccc(C(=O)N4CCC(N5CCCC5)CC4)n3Cc3ccccc32)cc1C [Example 137, {10-[(2′-Methoxy-2-methyl[1,1′-biphenyl]-4-yl)carbonyl]-10,11-dihydro-5H-pyrrolo[2,1-c][1,4]benzodiazepin-3-yl}[4-(1-pyrrolidinyl)-1-piperidinyl]methanone]",inhibition at 0.1 µM,88%
"COc1ccccc1-c1ccc(C(=O)N2Cc3ccc(C(=O)N4CCC[C@H]4CN4CCCC4)n3Cc3ccccc32)cc1OC [Example 269, {10-[(2,2′-Dimethoxy[1,1′-biphenyl]-4-yl)carbonyl]-10,11-dihydro-5H-pyrrolo[2,1-c][1,4]benzodiazepin-3-yl}[(2S)-2-(1-pyrrolidinylmethyl)pyrrolidinyl]methanone]",OT % inhibition @ 100% nM,88%
"CN(C)[C@@H]1CCN(C(=O)c2ccc3n2Cc2ccccc2N(C(=O)c2ccc(-c4cccc5ccccc45)cc2Cl)C3)C1 [Example 277, {10-[2-Chloro-4-(1-naphthyl)benzoyl]-10,11-dihydro-5H-pyrrolo[2,1-c][1,4]benzodiazepin-3-yl}[(3R)-3-(dimethylamino)pyrrolidinyl]methanone]",OT % inhibition @ 100% nM,41%
